Among the data in PubChem BioAssay (NCI) are TGI values, retold here.

Some test systems named below: COLO 205 colon; DU-145 prostate; HCT-116 colon; HCT-15 colon; HL-60(TB) leukemia; HS 578T breast; LOX IMVI melanoma; M14 melanoma; RXF 393 renal; SF-268 CNS; SF-295 CNS; SK-MEL-2 melanoma; SR leukemia; T-47D breast; UACC-257 melanoma; UO-31 renal.
What all share (assay): NCI tumour cell line growth inhibition, 48 h

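Protocol summary: plate cells (96-well), add compound at 5 concentrations, incubate 48 h, interpolate endpoints linearly. Definition used: TGI = concentration required for complete inhibition of growth.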 Some results are limits rather than exact numbers.

Consider `O=C(N/N=C/C=C/c1ccc([N+](=O)[O-])o1)c1ccc(C(=O)N/N=C/C=C/c2ccc([N+](=O)[O-])o2)cc1`, for which the TGI is more than 100 µM in the test with COLO 205 colon; more than 73.4 µM in the test with DU-145 prostate; 25.7 µM in the test on HCT-116 colon; more than 100 µM with HCT-15 colon; more than 65.2 µM in the test on HL-60(TB) leukemia; more than 100 µM in the test on HS 578T breast. Besides, the TGI with LOX IMVI melanoma is more than 75.8 µM; with M14 melanoma, 49.7 µM; in the test on RXF 393 renal it was 84 µM; with SF-268 CNS it was more than 58.5 µM; with SF-295 CNS, more than 100 µM; in the test with SK-MEL-2 melanoma, more than 100 µM. Also, the TGI in the test on SR leukemia is more than 73.4 µM; with T-47D breast, more than 69.2 µM; with UACC-257 melanoma, more than 30 µM; with UO-31 renal, more than 100 µM.

Take `CCOC(=O)C(Cc1ccc(N(CCCl)CCCl)cc1)NC(=O)CCCN1C(=O)CN=C(c2ccccc2)c2cc(Cl)ccc21` (stereo not drawn): the TGI is 37.8 µM with COLO 205 colon; more than 64.7 µM in the test with DU-145 prostate; more than 100 µM with HCT-116 colon; more than 100 µM with HCT-15 colon; 7.51 µM in the test with HL-60(TB) leukemia; 52 µM with HS 578T breast. In addition, the TGI in the test on LOX IMVI melanoma is 8.99 µM; with M14 melanoma it was 22.3 µM; in the test on RXF 393 renal, 8.77 µM; with SF-268 CNS, 71.5 µM; with SF-295 CNS it was more than 100 µM; in the test on SK-MEL-2 melanoma, 29.9 µM. Also, the TGI in the test with SR leukemia is more than 27.3 µM; with T-47D breast, 11.2 µM; in the test with UACC-257 melanoma, 8.31 µM; with UO-31 renal, 30.8 µM.

As for `C#CC1NC(=O)C1N(CC)CC` (stereo not drawn), the TGI with COLO 205 colon, in the test on DU-145 prostate, in the test with HCT-116 colon, with HCT-15 colon, with HL-60(TB) leukemia and in the test on HS 578T breast was more than 100 µM in each case. Also, the TGI in the test with LOX IMVI melanoma, in the test with M14 melanoma, with RXF 393 renal, in the test with SF-268 CNS, in the test on SF-295 CNS and with SK-MEL-2 melanoma was more than 100 µM each time. The TGI in the test on SR leukemia, with T-47D breast, in the test on UACC-257 melanoma and with UO-31 renal was more than 100 µM in each case.

For `O=C1C(S(=O)(=O)c2ccccc2)=C(CS(=O)(=O)c2ccccc2)[C@@H](OCc2ccccc2)[C@@H]1OCc1ccccc1`, the TGI is 61.3 µM in the test with COLO 205 colon; more than 100 µM in the test with DU-145 prostate; 27 µM in the test with HCT-116 colon; 44 µM with HCT-15 colon; 43.9 µM in the test with HL-60(TB) leukemia; 67 µM in the test with HS 578T breast. In addition, the TGI in the test with LOX IMVI melanoma was 32.9 µM; in the test on M14 melanoma, 32.1 µM; in the test on RXF 393 renal it was 27.8 µM; with SF-268 CNS, more than 100 µM; in the test on SF-295 CNS, 40.4 µM; in the test with SK-MEL-2 melanoma, 33.5 µM. Further, the TGI with SR leukemia was 33.5 µM; with T-47D breast, more than 100 µM; in the test on UACC-257 melanoma it was 66.3 µM; in the test on UO-31 renal, 37.1 µM.

For the compound `COc1cc2ccc1OCc1cccc(n1)COc1ccc(cc1OC)C=NCCNCCN=C2`, the TGI in the test with COLO 205 colon, with DU-145 prostate, in the test with HCT-116 colon, in the test with HCT-15 colon, in the test on HL-60(TB) leukemia and with HS 578T breast was more than 100 µM in each case. The TGI in the test with LOX IMVI melanoma, in the test on M14 melanoma, in the test with RXF 393 renal, with SF-268 CNS, in the test on SF-295 CNS and in the test on SK-MEL-2 melanoma was more than 100 µM each time. In addition, the TGI with SR leukemia, in the test with T-47D breast, with UACC-257 melanoma and in the test on UO-31 renal was more than 100 µM each time.

For the compound `CC1=NN(c2nc(N)nc(/C(C#N)=C\c3cccc([N+](=O)[O-])c3)n2)C(C)(C)C1`, the TGI with COLO 205 colon was more than 48 µM; in the test with DU-145 prostate, 50.8 µM; with HCT-116 colon, more than 42.1 µM; in the test with HCT-15 colon it was more than 47.6 µM; with HL-60(TB) leukemia, 4.61 µM; with HS 578T breast, 78.6 µM. Moreover, the TGI in the test on LOX IMVI melanoma was 36.3 µM; in the test on M14 melanoma, more than 48.9 µM; in the test on RXF 393 renal it was 14.3 µM; with SF-268 CNS, more than 65.1 µM; in the test on SF-295 CNS, 52 µM; in the test on SK-MEL-2 melanoma it was more than 29.9 µM. Further, the TGI in the test on SR leukemia is more than 73.1 µM; in the test on T-47D breast, 64.8 µM; with UACC-257 melanoma it was 49.3 µM; with UO-31 renal it was 15.7 µM.

Take `Cc1ccc(N2C(N)=C(C#N)C(C#N)(C#N)C2c2ccccc2)cc1` (stereo not drawn): the TGI with COLO 205 colon amounted to 24 µM; in the test on DU-145 prostate it was 28.2 µM; in the test on HCT-116 colon, 14.4 µM; with HCT-15 colon, 22.6 µM; with HL-60(TB) leukemia, 6.15 µM; in the test with HS 578T breast, 76.7 µM. Moreover, the TGI in the test with LOX IMVI melanoma was determined as 23.9 µM; in the test on M14 melanoma, 30.5 µM; in the test with RXF 393 renal, 25.3 µM; with SF-268 CNS, 65.9 µM; with SF-295 CNS, 60.3 µM; in the test with SK-MEL-2 melanoma it was 38.2 µM. Further, the TGI with SR leukemia worked out at 33.7 µM; in the test on T-47D breast, 21.4 µM; in the test on UACC-257 melanoma, 30.4 µM; in the test on UO-31 renal, 32 µM.

As for `CC1CN=C(Nc2ccc(F)c(Cl)c2)S1` (stereo not drawn), the TGI with COLO 205 colon, with DU-145 prostate, in the test on HCT-116 colon, in the test on HCT-15 colon, with HL-60(TB) leukemia and with HS 578T breast was more than 100 µM throughout. In addition, the TGI in the test with LOX IMVI melanoma, in the test with M14 melanoma, in the test with RXF 393 renal, in the test on SF-268 CNS, in the test with SF-295 CNS and in the test with SK-MEL-2 melanoma was more than 100 µM throughout. Besides, the TGI was more than 100 µM in the test with SR leukemia, more than 100 µM with T-47D breast, more than 100 µM with UACC-257 melanoma and 91.8 µM in the test with UO-31 renal.
